This is an account of results in ChEMBL document CHEMBL1201862, “PubChem BioAssay data set” (2004).

Activity calls are given as the source filed them.

For assay [1], the target named is Tyrosine-protein kinase Fer (Homo sapiens, UniProt P16591). The assay is classed as functional.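 Also: FER tested as one member of a kinome panel.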
Assay [2] has as its target Vascular endothelial growth factor receptor 1 (Homo sapiens, UniProt P17948). The class given is functional.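 Also: measured within a kinome-wide profiling panel, FLT1 as the panel member.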
Assay [3] has as its target Proto-oncogene tyrosine-protein kinase Src (Homo sapiens, UniProt P12931). The assay is classed as functional.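 Also: SRC entry within a kinome-wide kinase profiling panel.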
The target in assay [4] is Serine/threonine-protein kinase TBK1 (Homo sapiens, UniProt Q9UHD2). The assay is described as follows: Navigating the Kinome. Panel member name: TBK1. The assay is classed as functional.
Assay [5] deals with Protein kinase C gamma type (Homo sapiens, UniProt P05129). The class given is functional.
In assay [6] the target is Tyrosine-protein kinase FRK (Homo sapiens, UniProt P42685). The class given is functional.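 Also: FRK tested as one member of a kinome panel.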
The target of assay [7] is Serine/threonine-protein kinase Nek4 (Homo sapiens, UniProt P51957). The assay is classed as functional.
Assay [8] addresses Dual specificity tyrosine-phosphorylation-regulated kinase 4 (Homo sapiens, UniProt Q9NR20). The assay is classed as functional.
Assay [9] concerns the target Serine/threonine-protein kinase D2 (Homo sapiens, UniProt Q9BZL6). The assay is classed as functional.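 Also: measured against PRKD2 as one member of a kinome-wide kinase profiling panel.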
Assay [10] addresses MAP kinase-activated protein kinase 3 (Homo sapiens, UniProt Q16644). The class given is functional.
The target in assay [11] is Mitogen-activated protein kinase 13 (Homo sapiens, UniProt O15264). The assay is classed as functional.
The target of assay [12] is cAMP-dependent protein kinase catalytic subunit PRKX (Homo sapiens, UniProt P51817). The assay is classed as functional.
The target of assay [13] is Tyrosine-protein kinase Lyn (Homo sapiens, UniProt P07948). The class given is functional.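 Also: lyn as one member of a kinase panel.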
Assay [14] concerns the target Mitogen-activated protein kinase kinase kinase 20 (Homo sapiens, UniProt Q9NYL2). The assay is classed as functional.
The target in assay [15] is BDNF/NT-3 growth factors receptor (Homo sapiens, UniProt Q16620). The class given is functional.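 Also: NTRK2 measured as one member of a broad kinome-wide kinase profiling panel.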
Assay [16] concerns the target Cyclin-dependent kinase 7 (Homo sapiens, UniProt P50613). The class given is functional.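 Also: value comes from a kinome-wide kinase profiling panel in which CDK7 is one member.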
In assay [17] the target is Hepatocyte growth factor receptor (Homo sapiens, UniProt P08581). The class given is functional.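 Also: kinase panel profiling across the kinome, with MET as the panel member.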
Assay [18] deals with Tyrosine-protein kinase BTK (Homo sapiens, UniProt Q06187). The class given is functional.
The target of assay [19] is MAP kinase-activated protein kinase 5 (Homo sapiens, UniProt Q8IW41). The assay is classed as functional.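 Also: measured as one member of a kinome panel.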
The target of assay [20] is Phosphorylase b kinase gamma catalytic chain, liver/testis isoform (Homo sapiens, UniProt P15735). The class given is functional.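 Also: PHKG2 measured as one member of a kinome-wide kinase panel.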
The target in assay [21] is Serine/threonine-protein kinase PLK4 (Homo sapiens, UniProt O00444). The assay is classed as functional.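 Also: PLK4 measured as one member of a kinome-wide kinase profiling panel.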
Assay [22] concerns the target Cyclin-dependent kinase 1 (Homo sapiens, UniProt P06493). The class given is functional.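 Also: Kinome-wide panel profiling, with the target listed as panel member CDC2.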
Assay [23] has as its target Dual specificity protein kinase CLK2 (Homo sapiens, UniProt P49760). The assay is classed as functional.
The target of assay [24] is Dual specificity tyrosine-phosphorylation-regulated kinase 1B (Homo sapiens, UniProt Q9Y463). The assay is described as follows: Navigating the Kinome. Panel member name: DYRK1B. The assay is classed as functional.
Assay [25] addresses Serine/threonine-protein kinase pim-1 (Homo sapiens, UniProt P11309). The class given is functional.
Assay [26] deals with Glycogen synthase kinase-3 alpha (Homo sapiens, UniProt P49840). The assay is classed as functional.
Assay [27] concerns the target Mitogen-activated protein kinase 8 (Homo sapiens, UniProt P45983). The assay is classed as functional.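 Also: value comes from one member of a kinome-wide kinase profiling panel.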
For assay [28], the target named is Dual specificity tyrosine-phosphorylation-regulated kinase 3 (Homo sapiens, UniProt O43781). The assay is classed as functional.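 Also: measured as one member of a broad kinase panel.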
Assay [29] has as its target Dual specificity mitogen-activated protein kinase kinase 1 (Homo sapiens, UniProt Q02750). The assay is described as follows: Navigating the Kinome. Panel member name: MAP2K1. The class given is functional.
The target in assay [30] is Receptor tyrosine-protein kinase erbB-2 (Homo sapiens, UniProt P04626). Nature of the assay: Navigating the Kinome. Panel member name: ERBB2. The class given is functional.
Assay [31] concerns the target Glycogen synthase kinase-3 beta (Homo sapiens, UniProt P49841). The class given is functional.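 Also: value comes from a broad kinome profiling panel, with GSK3B as the panel member.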
Assay [32] concerns the target Platelet-derived growth factor receptor alpha (Homo sapiens, UniProt P16234). Nature of the assay: Navigating the Kinome. Panel member name: PDGFRA. The assay is classed as functional.
Assay [33] has as its target T1, Sentrin-specific protease 8 (Homo sapiens, UniProt Q96LD8).
T1 sequence (Q96LD8 whole entry): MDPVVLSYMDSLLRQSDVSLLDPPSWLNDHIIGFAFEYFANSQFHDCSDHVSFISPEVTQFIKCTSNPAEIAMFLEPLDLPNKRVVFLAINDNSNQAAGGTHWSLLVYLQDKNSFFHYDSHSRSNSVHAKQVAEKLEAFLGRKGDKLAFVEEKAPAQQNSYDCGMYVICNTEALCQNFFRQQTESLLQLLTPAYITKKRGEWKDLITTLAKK
The class given is functional.

Assay [34] in a line: ARNT/TACC3 interaction disruptors, potency, confirmation, biochemical, AlphaScreen, cherry-picked samples (AID 651703).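 Also: His-tagged ARNT PAS-B domain paired with GST-TACC3 E629A dimer coactivator fragment; potency of inhibitors that break up the complex and lower AlphaScreen signal.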 The class given is functional, Homo sapiens. For orientation: In Alpha technology, singlet oxygen from a donor bead excites a nearby acceptor bead.
A further assay deals with Genome polyprotein (dengue virus type 2, UniProt P29990). The assay is described as follows: Dengue-2 NS5 methyltransferase inhibitors, primary screen, biochemical, confirmation dose response (AID 588689). The class given is functional.
Assay [35] concerns the target T2, Neuropeptide Y receptor type 1 (Homo sapiens, UniProt P25929).
T2 sequence (P25929 whole entry): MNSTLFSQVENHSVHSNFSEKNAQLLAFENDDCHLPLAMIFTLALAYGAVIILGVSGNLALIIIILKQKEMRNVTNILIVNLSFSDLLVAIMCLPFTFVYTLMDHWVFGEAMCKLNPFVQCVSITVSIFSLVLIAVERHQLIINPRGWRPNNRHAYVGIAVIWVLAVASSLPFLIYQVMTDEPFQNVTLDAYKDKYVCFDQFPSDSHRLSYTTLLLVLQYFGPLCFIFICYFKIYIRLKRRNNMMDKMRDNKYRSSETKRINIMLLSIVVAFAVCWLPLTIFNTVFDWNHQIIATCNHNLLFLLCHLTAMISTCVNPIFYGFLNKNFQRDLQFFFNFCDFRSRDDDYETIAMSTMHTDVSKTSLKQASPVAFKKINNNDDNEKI
The assay is described as follows: Fluorescence-based dose response cell-based high-throughput screening assay for agonists of NPY-Y1. [Related pubchem assays: 1697 (Screening assay (NPY-Y1 agonists).), 1359 (Screening assay (NPY-Y2 potentiators or agonists).), 1304 (Screening assay (NPY-Y1 potentiators or agonists).), 1704 (Screening assay (CNGC inhibitors).), 1791 (Summary AID.)]. The class given is functional.

BDNF/NT-3 growth factors receptor, sequence (Q16620 whole entry): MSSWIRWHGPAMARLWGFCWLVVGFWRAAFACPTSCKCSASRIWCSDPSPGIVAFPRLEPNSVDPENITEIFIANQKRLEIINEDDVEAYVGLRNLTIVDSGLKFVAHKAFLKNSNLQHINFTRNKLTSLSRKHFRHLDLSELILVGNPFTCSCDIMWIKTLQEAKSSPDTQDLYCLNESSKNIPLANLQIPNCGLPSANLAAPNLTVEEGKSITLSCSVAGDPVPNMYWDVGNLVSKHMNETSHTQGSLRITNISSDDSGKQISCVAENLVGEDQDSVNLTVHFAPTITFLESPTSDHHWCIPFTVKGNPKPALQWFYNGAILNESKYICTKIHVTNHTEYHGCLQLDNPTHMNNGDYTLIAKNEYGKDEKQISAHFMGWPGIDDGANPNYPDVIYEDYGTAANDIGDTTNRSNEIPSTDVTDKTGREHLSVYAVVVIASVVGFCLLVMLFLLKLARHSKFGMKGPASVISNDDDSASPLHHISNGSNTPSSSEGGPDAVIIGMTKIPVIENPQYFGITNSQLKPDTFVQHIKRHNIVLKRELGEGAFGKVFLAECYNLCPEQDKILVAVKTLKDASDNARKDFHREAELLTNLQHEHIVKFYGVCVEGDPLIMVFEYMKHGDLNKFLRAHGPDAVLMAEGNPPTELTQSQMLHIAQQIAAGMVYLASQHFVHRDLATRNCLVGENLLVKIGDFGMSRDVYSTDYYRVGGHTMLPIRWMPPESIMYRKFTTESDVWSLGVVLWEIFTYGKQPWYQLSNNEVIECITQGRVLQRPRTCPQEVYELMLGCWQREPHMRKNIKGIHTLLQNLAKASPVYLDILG
Serine/threonine-protein kinase Nek4, sequence (P51957 whole entry): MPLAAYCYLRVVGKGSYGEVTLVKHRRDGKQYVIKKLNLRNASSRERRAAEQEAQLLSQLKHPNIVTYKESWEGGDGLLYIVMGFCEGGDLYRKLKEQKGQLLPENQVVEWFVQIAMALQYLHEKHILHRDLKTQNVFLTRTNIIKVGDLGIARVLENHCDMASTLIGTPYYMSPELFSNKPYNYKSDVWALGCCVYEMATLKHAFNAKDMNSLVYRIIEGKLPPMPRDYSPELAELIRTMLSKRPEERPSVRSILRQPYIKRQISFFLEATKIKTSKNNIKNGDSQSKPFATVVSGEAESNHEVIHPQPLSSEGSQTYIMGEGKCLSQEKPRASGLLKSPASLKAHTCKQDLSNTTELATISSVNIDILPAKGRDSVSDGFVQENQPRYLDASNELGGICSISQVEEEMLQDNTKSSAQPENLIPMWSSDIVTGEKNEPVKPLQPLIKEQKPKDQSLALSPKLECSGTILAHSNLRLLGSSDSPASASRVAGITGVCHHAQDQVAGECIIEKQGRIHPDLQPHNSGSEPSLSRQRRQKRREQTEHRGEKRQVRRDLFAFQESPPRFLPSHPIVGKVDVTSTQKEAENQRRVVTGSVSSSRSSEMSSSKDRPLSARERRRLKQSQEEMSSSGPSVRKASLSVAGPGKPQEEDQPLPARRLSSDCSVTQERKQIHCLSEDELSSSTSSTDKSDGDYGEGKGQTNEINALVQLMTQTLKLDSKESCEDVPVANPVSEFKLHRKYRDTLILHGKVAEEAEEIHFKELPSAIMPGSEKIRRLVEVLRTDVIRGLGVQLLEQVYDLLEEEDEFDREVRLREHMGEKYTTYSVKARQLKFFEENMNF
cAMP-dependent protein kinase catalytic subunit PRKX, sequence (P51817 whole entry): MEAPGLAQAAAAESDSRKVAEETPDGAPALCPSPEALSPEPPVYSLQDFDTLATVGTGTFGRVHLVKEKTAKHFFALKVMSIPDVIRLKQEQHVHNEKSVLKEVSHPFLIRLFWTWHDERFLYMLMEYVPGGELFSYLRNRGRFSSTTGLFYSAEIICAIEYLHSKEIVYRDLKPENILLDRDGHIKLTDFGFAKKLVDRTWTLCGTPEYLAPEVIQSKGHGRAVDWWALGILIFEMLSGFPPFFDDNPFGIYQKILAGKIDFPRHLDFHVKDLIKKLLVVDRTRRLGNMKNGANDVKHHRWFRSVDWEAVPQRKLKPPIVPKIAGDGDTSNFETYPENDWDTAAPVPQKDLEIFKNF
MAP kinase-activated protein kinase 5, sequence (Q8IW41 whole entry, canonical isoform): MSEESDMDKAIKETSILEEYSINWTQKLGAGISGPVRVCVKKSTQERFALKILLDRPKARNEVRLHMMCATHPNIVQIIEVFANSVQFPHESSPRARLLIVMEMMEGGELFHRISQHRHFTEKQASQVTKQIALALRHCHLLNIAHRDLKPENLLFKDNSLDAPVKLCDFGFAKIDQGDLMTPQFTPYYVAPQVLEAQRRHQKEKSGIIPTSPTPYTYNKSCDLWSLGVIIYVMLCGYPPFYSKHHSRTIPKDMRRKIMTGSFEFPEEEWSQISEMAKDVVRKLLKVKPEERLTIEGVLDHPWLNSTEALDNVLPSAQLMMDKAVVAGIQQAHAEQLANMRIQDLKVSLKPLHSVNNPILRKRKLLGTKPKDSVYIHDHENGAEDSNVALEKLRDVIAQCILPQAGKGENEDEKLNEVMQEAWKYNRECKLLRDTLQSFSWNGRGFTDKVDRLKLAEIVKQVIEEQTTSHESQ
Phosphorylase b kinase gamma catalytic chain, liver/testis isoform, sequence (P15735 whole entry, canonical isoform): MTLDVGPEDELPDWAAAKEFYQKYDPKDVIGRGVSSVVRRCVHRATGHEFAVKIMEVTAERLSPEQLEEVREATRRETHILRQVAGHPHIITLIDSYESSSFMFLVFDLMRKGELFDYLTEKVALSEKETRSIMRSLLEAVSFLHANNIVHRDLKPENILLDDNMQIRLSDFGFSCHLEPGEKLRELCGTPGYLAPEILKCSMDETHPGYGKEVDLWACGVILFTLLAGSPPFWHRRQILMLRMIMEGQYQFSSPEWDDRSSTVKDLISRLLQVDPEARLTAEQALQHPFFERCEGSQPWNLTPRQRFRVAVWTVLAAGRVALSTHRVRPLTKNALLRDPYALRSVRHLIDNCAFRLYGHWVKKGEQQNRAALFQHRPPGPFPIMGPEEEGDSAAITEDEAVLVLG
Tyrosine-protein kinase BTK, sequence (Q06187 whole entry): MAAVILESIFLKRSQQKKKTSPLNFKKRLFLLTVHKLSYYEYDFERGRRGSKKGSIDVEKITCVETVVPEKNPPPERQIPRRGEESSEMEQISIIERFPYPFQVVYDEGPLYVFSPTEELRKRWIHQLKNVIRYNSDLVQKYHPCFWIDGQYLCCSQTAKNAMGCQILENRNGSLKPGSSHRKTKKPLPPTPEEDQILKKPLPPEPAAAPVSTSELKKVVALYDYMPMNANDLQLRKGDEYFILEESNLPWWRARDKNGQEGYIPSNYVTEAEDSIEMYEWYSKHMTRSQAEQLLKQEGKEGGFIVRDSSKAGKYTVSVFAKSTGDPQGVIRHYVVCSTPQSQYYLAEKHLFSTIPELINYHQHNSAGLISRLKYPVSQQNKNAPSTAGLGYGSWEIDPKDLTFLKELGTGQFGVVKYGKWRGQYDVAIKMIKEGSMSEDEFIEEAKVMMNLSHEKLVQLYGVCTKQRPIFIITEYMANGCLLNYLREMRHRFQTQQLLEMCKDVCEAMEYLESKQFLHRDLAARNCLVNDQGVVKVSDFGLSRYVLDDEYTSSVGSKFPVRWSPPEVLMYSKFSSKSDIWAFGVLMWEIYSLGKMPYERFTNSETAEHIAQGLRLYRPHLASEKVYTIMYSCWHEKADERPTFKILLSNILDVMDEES
Cyclin-dependent kinase 1, sequence (P06493 whole entry): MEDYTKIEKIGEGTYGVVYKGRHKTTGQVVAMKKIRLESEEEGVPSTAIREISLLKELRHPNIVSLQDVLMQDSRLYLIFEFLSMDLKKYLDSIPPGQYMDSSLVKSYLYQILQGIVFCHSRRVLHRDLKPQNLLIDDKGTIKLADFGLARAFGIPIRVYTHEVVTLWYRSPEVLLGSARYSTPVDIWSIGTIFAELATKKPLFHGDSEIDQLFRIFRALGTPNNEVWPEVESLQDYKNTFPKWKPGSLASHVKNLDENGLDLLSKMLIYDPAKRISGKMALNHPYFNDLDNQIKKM
Mitogen-activated protein kinase 13, sequence (O15264 whole entry): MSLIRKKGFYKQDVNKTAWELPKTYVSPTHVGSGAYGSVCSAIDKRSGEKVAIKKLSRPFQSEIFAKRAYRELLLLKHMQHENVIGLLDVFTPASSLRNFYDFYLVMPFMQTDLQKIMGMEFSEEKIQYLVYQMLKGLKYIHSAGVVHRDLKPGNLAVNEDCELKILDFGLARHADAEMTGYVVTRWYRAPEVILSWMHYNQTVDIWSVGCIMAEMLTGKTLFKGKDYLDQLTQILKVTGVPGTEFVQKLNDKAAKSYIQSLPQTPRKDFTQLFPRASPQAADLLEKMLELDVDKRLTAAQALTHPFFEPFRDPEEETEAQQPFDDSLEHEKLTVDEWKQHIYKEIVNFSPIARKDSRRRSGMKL
Tyrosine-protein kinase FRK, sequence (P42685 whole entry): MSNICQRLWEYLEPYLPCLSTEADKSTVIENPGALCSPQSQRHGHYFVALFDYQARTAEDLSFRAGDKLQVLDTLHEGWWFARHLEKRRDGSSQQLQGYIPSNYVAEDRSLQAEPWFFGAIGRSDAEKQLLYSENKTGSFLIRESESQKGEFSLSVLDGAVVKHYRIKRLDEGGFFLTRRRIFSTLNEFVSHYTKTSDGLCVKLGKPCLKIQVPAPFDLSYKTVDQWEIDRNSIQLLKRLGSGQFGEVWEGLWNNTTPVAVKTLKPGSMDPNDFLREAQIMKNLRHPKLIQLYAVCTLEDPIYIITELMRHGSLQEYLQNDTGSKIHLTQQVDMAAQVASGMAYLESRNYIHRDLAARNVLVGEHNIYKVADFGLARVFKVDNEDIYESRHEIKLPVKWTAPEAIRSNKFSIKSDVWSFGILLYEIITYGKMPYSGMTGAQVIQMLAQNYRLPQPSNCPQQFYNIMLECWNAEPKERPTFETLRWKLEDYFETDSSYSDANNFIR

As usually defined, the Ki is the dissociation constant of the complex between target and ligand, obtained from inhibition or displacement. As to `OC1CCC(Nc2cc(Cl)nc(-c3c[nH]c4ncccc34)n2)CC1` (stereo unspecified), the Ki is 501 nM (active) in assay [1]; > 1580 nM (inactive) in [2]; > 2000 nM (inactive) in [3]; > 3160 nM (inactive) in [4]; 251 nM (active) in assay [5]; 1000 nM (active) in [6]. In addition, the inhibition constant (Ki) in [7] was 794 nM (active); in [8], 1580 nM (active); in [9], 316 nM (active); in assay [10] it was > 10000 nM (inactive); in [11], 1260 nM (active); in [12] it was 398 nM (active). Moreover, the Ki in assay [13] was > 1000 nM (inactive); in assay [14], > 7940 nM (inactive); in assay [15] it was > 5010 nM (inactive); in assay [16] it was > 6310 nM (inactive); in assay [17], > 2000 nM (inactive); in [18], > 2510 nM (inactive). For the same molecule, the Ki in [19] is > 1580 nM (inactive); in [20], > 5010 nM (inactive); in [21], > 2510 nM (inactive); in [22], 1000 nM (active); in assay [23], 794 nM (active); in assay [24], 316 nM (active). Moreover, the Ki in [25] was 1000 nM (active); in [26], 31.6 nM (active); in assay [27] it was 2510 nM (active); in assay [28], 50.1 nM (active); in [29] it was 31.6 nM (active); in [30] it was 1000 nM (active). Further, the Ki in [31] is 63.1 nM (active); in [32] it was > 1580 nM (inactive).
For orientation: IC50 means the concentration that inhibits the measured activity by half. Broadly, the AC50 is the midpoint of the concentration-response curve, whichever way the signal moves. With `O=C(COC(=O)c1ccc([N+](=O)[O-])s1)NCCc1ccccc1`, in assay [33], the IC50 is 2820 nM (active). For the same molecule, the AC50 in assay [34] was 83700 nM (active).
As usually defined, the EC50 is the concentration that produces a half-maximal response. As for `COCC/N=c1\scc(-c2cccs2)n1/N=C/c1ccc(O)c(O)c1O`, the IC50 on Genome polyprotein was > 100000 nM (active). Also, in assay [35], the EC50 is > 11800 nM (not active).
